Here are results for two compounds from patent US9265746B2, “Method for cell-specific targeting” (priority 2006, dated 2016).

The data set relates to KB-cell xenografts. The data set is described as follows: Biodistribution of folate radiotracers in athymic nude mice bearing KB-cell xenografts, with or without antifolate. Type of data set: in vivo. As to conditions: 4 h p.i.; antifolate named in label pre-injected 1 h before radiotracer. The procedure:
Preparation of cells for in vivo experiments: For subcutaneous inoculation of the mice sub-confluent cells were harvested by treatment with EDTA (1 mM) in PBS (1×, pH 7.4). The cells were then washed once with PBS and pelleted by spinning at 1000×g for 5 min at 20° C. The cells were resuspended in PBS to obtain a concentration of 50×10^6 cells/mL.
In Vivo Studies. 4-5-week-old female, athymic nude mice (CD1-Foxn1/nu) were purchased from Charles River Laboratories (Sulzfeld, Germany). Mice were housed under conditions of controlled temperature (26° C.), humidity (68%) and daily light cycle (12 h light/12 h dark). The animals were fed with a folate-deficient rodent diet (to reduce their serum folate to a level near that of humans) (Mathias et al, J. Nucl. Med. 1996; 37:1003-08). After an acclimation period of 5-7 days, the mice were inoculated subcutaneously with the tumour cell suspension (5×10^6 cells) into the subcutis of the axilla. Radiotracer distribution studies were performed 12-14 days after tumour cell inoculation. The radiotracer (100 μL, 1a: 3.5 MBq/mL or 1b: 7 MBq/mL) was administered via a lateral tail vein. Antifolates (MTX, RTX and PMX) were dosed according to literature experiments at the upper limit of the tolerated dose (Li et al, Clin. Exp. Pharmacol. Physiol. 2004; 31:267-70; Pritchard et al, Clin. Cancer Res. 2000; 6:4389-95; Hughes et al, Journal of Clinical Oncology 2002; 20:3533-44; Aherne et al, Br. J. Cancer 1998; 77:221-26). MTX was supplemented to the drinking water (80 mg/mL) or intravenously injected (400 μg), 24 h, 2 h, 1 h, 30 min and 15 min previous to the administration of radiotracer 1a. RTX (100 μg) and PMX (400 μg) respectively were administered intravenously 2 h, 1 h, 30 min and 15 min previous to the radiotracer 1a. The animals were sacrificed and dissected 4 h p.i. of the radiotracer 1a. Additional biodistribution experiments were performed (30 min), 1 h, 4 h and 24 h post injection of the radiotracer 1a or 1b respectively with (antifolate) pre-treated animals 1 h previous to the experiment. The selected tissues were removed, weighted, and counted for radioactivity to determine distribution of radioactivity within the test animal. The results were tabulated as percentage of the injected dose per gram (% ID/g) of weight tissue, using reference counts from a definite sample of the original injectate.

As for `Nc1nc2ncc(CNc3ccc(C(=O)NC(CCC(=O)NCCCCCCn4cc5[n+](c4)[99Tc-5]4([C]#[O+])([C]#[O+])([C]#[O+])[NH2+]C(C5)C(=O)[O]4)C(=O)O)cc3)nc2c(=O)[nH]1` (stereo not drawn) [radiotracer 2a], the biodistribution blood was found to be 0.19 ± 0.18 % ID/g, the biodistribution bone is on record as 0.82 ± 0.13 % ID/g, the “biodistribution contents of intest.” value stood at 7.72 ± 4.36 % ID/g and the biodistribution heart was found to be 0.80 ± 0.60 % ID/g. Also, the biodistribution intestines came out at 0.79 ± 0.43 % ID/g, the biodistribution kidney turned out to be 42.02 ± 7.31 % ID/g, the biodistribution liver worked out at 4.51 ± 1.29 % ID/g and the biodistribution lung turned out to be 0.85 ± 0.08 % ID/g. Further, the biodistribution muscle came to 1.31 ± 0.28 % ID/g, the biodistribution spleen was found to be 0.30 ± 0.05 % ID/g, the biodistribution stomach worked out at 0.62 ± 0.22 % ID/g and the biodistribution tumour turned out to be 3.72 ± 0.89 % ID/g. Further, the tumour-to-blood was 12.29 ± 4.22, the tumour-to-kidney is reported as 0.09 ± 0.02 and the tumour-to-liver is on record as 0.88 ± 0.38.
On to `Nc1nc2ncc(CNc3ccc(C(=O)NC(CCC(=O)NCCCCCC[N+]45Cc6cccc[n+]6[99Tc-5]4([C]#[O+])([C]#[O+])([C]#[O+])[n+]4ccccc4C5)C(=O)O)cc3)nc2c(=O)[nH]1` (stereo not drawn) [radiotracer 3a], for which the biodistribution blood is listed as 0.03 ± 0.01 % ID/g, the biodistribution bone is 0.16 ± 0.02 % ID/g, the “biodistribution contents of intest.” value was determined as 2.49 ± 12.10 % ID/g and the biodistribution heart was 0.20 ± 0.09 % ID/g. The biodistribution intestines was determined as 0.71 ± 0.40 % ID/g, the biodistribution kidney came out at 7.11 ± 0.75 % ID/g, the biodistribution liver turned out to be 1.72 ± 2.04 % ID/g and the biodistribution lung is 0.20 ± 0.02 % ID/g. Also, the biodistribution muscle is recorded as 0.27 ± 0.01 % ID/g, the biodistribution spleen is on record as 0.08 ± 0.02 % ID/g, the biodistribution stomach is 0.54 ± 0.58 % ID/g and the biodistribution tumour is 0.82 ± 0.27 % ID/g. Further, the tumour-to-blood amounted to 27.00 ± 14.60, the tumour-to-kidney came to 0.12 ± 0.05 and the tumour-to-liver stood at 1.24 ± 1.03.
